What is called melting point is the temperature, or range, at which the solid turns liquid.

Experimental findings from patent US7183415B2, “Quinoline compound” (Takeda Pharmaceutical Company Limited, priority 2001, dated 2007) are described below.

`Cc1c(NC(=O)c2ccc(-c3ccc(Cl)s3)cc2F)ccc2cc(CN3CCCC3)cnc12` (hydrate or solvate) [Example 143, 4-(5-chloro-2-thienyl)-2-fluoro-N-[8-methyl-3-(1-pyrrolidinylmethyl)-7-quinolinyl]benzamide] showed a melting point of 160 to 162 °C. The result for `Cc1c(NC(=O)c2ccc(-c3ccc(Cl)s3)cc2F)ccc2cc(CN3CCCCCC3)cnc12` (hydrate or solvate) [Example 186, N-[3-(1-azepanylmethyl)-8-methyl-7-quinolinyl]-4-(5-chloro-2-thienyl)-2-fluorobenzamide] reads 166 to 167 °C; that for `Cc1cc2cc(CN3CCOCC3)cnc2cc1NC(=O)c1ccc(-c2ccc(F)cc2)cc1` [Example 252, 4′-fluoro-N-[6-methyl-3-(4-morpholinylmethyl)-7-quinolinyl][1,1′-biphenyl]-4-carboxamide], 153 to 158 °C.

The compound `COc1ccc(-c2ccc(C(=O)Nc3ccc4cc(CN5CCCC5)cnc4c3C)c(F)c2)cc1` [Example 147, 3-fluoro-4′-methoxy-N-[8-methyl-3-(1-pyrrolidinylmethyl)-7-quinolinyl][1,1′-biphenyl]-4-carboxamide] showed a melting point of 164 to 166 °C. With `Cc1ccc(-c2ccc(C(=O)Nc3cc4ncc(CN5CCCC5)cc4cc3C)cc2F)cc1` [Example 234, 2-fluoro-4′-methyl-N-[6-methyl-3-(1-pyrrolidinylmethyl)-7-quinolinyl][1,1′-biphenyl]-4-carboxamide] the figure was 175 to 178 °C; with `O=C(Nc1cc2ncc(CN3CCCC3)cc2cc1F)c1ccc(-c2ccc(C(F)(F)F)cc2)cc1` [Example 55, N-[6-fluoro-3-(1-pyrrolidinylmethyl)-7-quinolinyl]-4′-(trifluoromethyl)[1,1′-biphenyl]-4-carboxamide], 209 to 212 °C; with `Cc1c(NC(=O)c2ccc(OCc3ccc(F)cc3)cc2)ccc2cc(CN3CCCCC3)cnc12` [Example 162, 4-[(4-fluorobenzyl)oxy]-N-[8-methyl-3-(1-piperidinylmethyl)-7-quinolinyl]benzamide], 159 to 160 °C. The result for `Cc1c(NC(=O)c2ccc(-c3ccc(Cl)s3)cc2)ccc2cc(CN3CCCCC3)cnc12` [Example 167, 4-(5-chloro-2-thienyl)-N-[8-methyl-3-(1-piperidinylmethyl)-7-quinolinyl]benzamide] reads 212 to 213 °C; that for `Cc1cc2cc(CN3CCC(C(N)=O)CC3)cnc2cc1NC(=O)c1ccc(-c2ccc(F)cc2)cc1` [Example 276, 1-[(7-{[(4′-fluoro-1,1′-biphenyl-4-yl)carbonyl]amino}-6-methyl-3-quinolinyl)methyl]piperidine-4-carboxamide], 265 °C; that for `COc1ccc(-c2ccc(C(=O)Nc3ccc4cc(CN5CCCC5)cnc4c3C)cc2F)cc1` [Example 152, 2-fluoro-4′-methoxy-N-[8-methyl-3-(1-pyrrolidinylmethyl)-7-quinolinyl][1,1′-biphenyl]-4-carboxamide], 174 to 176 °C. With `Cc1ccc(-c2ccc(C(=O)Nc3ccc4cc(CN5CCCC5)cnc4c3C)cn2)cc1` [Example 94, 6-(4-methylphenyl)-N-[8-methyl-3-(1-pyrrolidinylmethyl)-7-quinolinyl]nicotinamide] the figure was 178 to 180 °C; with `Cc1c(NC(=O)c2ccc(C3CCCCC3)cc2)ccc2cc(CN3CCCC3)cnc12` [Example 122, 4-cyclohexyl-N-[8-methyl-3-(1-pyrrolidinylmethyl)-7-quinolinyl]benzamide], 178 to 179 °C; with `Cc1cc2cc(CN3CCCC3)cnc2cc1NC(=O)c1ccc(-c2ccc(Cl)s2)cc1` [Example 220, 4-(5-chlorothien-2-yl)-N-[6-methyl-3-(1-pyrrolidinylmethyl)-7-quinolinyl]benzamide], 216 °C. Regarding `COc1ccc(-c2ccc(C(=O)Nc3cc4ncc(CN5CCCC5)cc4cc3Cl)cc2)cc1` [Example 67, N-[6-chloro-3-(1-pyrrolidinylmethyl)-7-quinolinyl]-4′-methoxy-[1,1′-biphenyl]-4-carboxamide], the melting point came to 184 °C.

On to `Cc1cc2cc(CN3CCCC3)cnc2cc1NC(=O)c1ccc(-c2ccc(F)c(F)c2)cc1` [Example 216, 3′,4′-difluoro-N-[6-methyl-3-(1-pyrrolidinylmethyl)-7-quinolinyl][1,1′-biphenyl]-4-carboxamide], for which the melting point was 220 to 223 °C.

`Cc1c(NC(=O)c2ccc(-c3ccc(C(F)(F)F)cc3)cc2)ccc2cc(CN3CCCC3)cnc12` [Example 101, N-[8-methyl-3-(1-pyrrolidinylmethyl)-7-quinolinyl]-4′-(trifluoromethyl)[1,1′-biphenyl]-4-carboxamide] displayed a melting point of 220 to 222 °C.

The compound `Cc1c(NC(=O)c2ccc(OCc3ccccc3)cc2)ccc2cc(CN3CCCCC3)cnc12` [Example 161, 4-(benzyloxy)-N-[8-methyl-3-(1-piperidinylmethyl)-7-quinolinyl]benzamide] displayed a melting point of 186 to 187 °C. With `Cc1ccc(-c2ccc(C(=O)Nc3cc4ncc(CN5CCCC5)cc4cc3F)c(F)c2)cc1` [Example 61, 3-fluoro-N-[6-fluoro-3-(1-pyrrolidinylmethyl)-7-quinolinyl]-4′-methyl[1,1′-biphenyl]-4-carboxamide] the figure was 179 to 181 °C; with `COc1ccc(-c2ccc(C(=O)Nc3ccc4cc(CN5CCCC5)cnc4c3C)cn2)cc1` [Example 96, 6-(4-methoxyphenyl)-N-[8-methyl-3-(1-pyrrolidinylmethyl)-7-quinolinyl]nicotinamide], 180 to 182 °C; with `Cc1cc2cc(CN3CCC(CCCC(N)=O)CC3)cnc2cc1NC(=O)c1ccc(-c2ccc(F)cc2)cc1` [Example 264, N-(3-{[4-(4-amino-4-oxobutyl)-1-piperidinyl]methyl}-6-methyl-7-quinolinyl)-4′-fluoro[1,1′-biphenyl]-4-carboxamide], 228 °C. The result for `Cc1c(NC(=O)c2ccc(-c3ccc(Cl)s3)cc2F)ccc2cc(CN3CCCCC3)cnc12` (hydrate or solvate) [Example 172, 4-(5-chloro-2-thienyl)-2-fluoro-N-[8-methyl-3-(1-piperidinylmethyl)-7-quinolinyl]benzamide] reads 205 to 206 °C. On to `Cc1c(NC(=O)c2ccc(-c3ccc4c(c3)CCCO4)cc2)ccc2cc(CN3CCCC3)cnc12` [Example 114, 4-(3,4-dihydro-2H-chromen-6-yl)-N-[8-methyl-3-(1-pyrrolidinylmethyl)-7-quinolinyl]benzamide], for which the melting point fell in the range of 195 to 197 °C. Regarding `Cc1cc2cc(CN3CCC(C(=O)N(C)C)CC3)cnc2cc1NC(=O)c1ccc(-c2ccc(F)cc2)cc1` [Example 274, 1-[(7-{[(4′-fluoro-1,1′-biphenyl-4-yl)carbonyl]amino}-6-methyl-3-quinolinyl)methyl]-N,N-dimethylpiperidine-4-carboxamide], the melting point was found to be 229 °C. `NC(=O)C1CCN(Cc2cnc3cc(NC(=O)c4ccc(-c5ccc(Cl)cc5)cc4)ccc3c2)CC1` [Example 90, 1-[(7-{[(4′-chloro-1,1′-biphenyl-4-yl)carbonyl]amino}-3-quinolinyl)methyl]piperidine-4-carboxamide] had a melting point of 260 °C.

Compound `Cc1cc2cc(CN3CCC(CCC(=O)N4CCCCC4)CC3)cnc2cc1NC(=O)c1ccc(-c2ccc(F)cc2)cc1` [Example 258, 4′-fluoro-N-[6-methyl-3-({4-[3-oxo-3-(1-piperidinyl)propyl]-1-piperidinyl}methyl)-7-quinolinyl][1,1′-biphenyl]-4-carboxamide] registered a melting point of 189 to 191 °C. The compound `O=C(Nc1cc2ncc(CN3CCCC3)cc2cc1F)c1ccc(-c2ccc(F)cc2)cc1F` [Example 60, 3,4′-difluoro-N-[6-fluoro-3-(1-pyrrolidinylmethyl)-7-quinolinyl][1,1′-biphenyl]-4-carboxamide] yielded a melting point of 200 to 202 °C. The result for `Cc1cc2cc(CN3CCCC3)cnc2cc1NC(=O)c1ccc(-c2ccc(F)cc2)c(F)c1` [Example 233, 2,4′-difluoro-N-[6-methyl-3-(1-pyrrolidinylmethyl)-7-quinolinyl][1,1′-biphenyl]-4-carboxamide] reads 163 to 166 °C; that for `Cc1c(NC(=O)c2ccc(-c3ccccc3)cc2)ccc2cc(CN3CCCC3)cnc12` [Example 17, N-[8-methyl-3-(1-pyrrolidinylmethyl)-7-quinolinyl][1,1′-biphenyl]-4-carboxamide], 184 to 186 °C; that for `Cc1ccc(-c2ccc(C(=O)Nc3ccc4cc(CN5CCCC5)cnc4c3)c(F)c2)cc1` [Example 277, 3-fluoro-4′-methyl-N-[3-(1-pyrrolidinylmethyl)-7-quinolinyl][1,1′-biphenyl]-4-carboxamide], 173 °C.

Regarding `O=C(Nc1ccc2cc(CN3CCCC3)cnc2c1)c1ccc(-c2ccc(F)cc2)cc1` [Example 4, 4′-fluoro-N-[3-(1-pyrrolidinylmethyl)-7-quinolinyl][1,1′-biphenyl]-4-carboxamide], the melting point fell in the range of 210 to 212 °C. With `Cc1cc2cc(CN3CCC(C(=O)N4CCCCC4)CC3)cnc2cc1NC(=O)c1ccc(-c2ccc(F)cc2)cc1` [Example 271, 4′-fluoro-N-(6-methyl-3-{[4-(1-piperidinylcarbonyl)-1-piperidinyl]methyl}-7-quinolinyl)[1,1′-biphenyl]-4-carboxamide] the figure was 250 °C. The result for `Cc1c(NC(=O)c2ccc(-c3ccccc3)c(F)c2)ccc2cc(CN3CCCCC3)cnc12` (hydrate or solvate) [Example 175, 2-fluoro-N-[8-methyl-3-(1-piperidinylmethyl)-7-quinolinyl][1,1′-biphenyl]-4-carboxamide] reads 138 to 139 °C. `CNC(=O)CCC1CCN(Cc2cnc3cc(NC(=O)c4ccc(-c5ccc(F)cc5)cc4)c(C)cc3c2)CC1` [Example 254, 4′-fluoro-N-[6-methyl-3-({4-[3-(methylamino)-3-oxopropyl]-1-piperidinyl}methyl)-7-quinolinyl][1,1′-biphenyl]-4-carboxamide] had a melting point of 207 to 211 °C.
